Test [1] has as its system recombinant human VDAC1. The test can be described thus: Microscale Thermophoresis (MST) analysis of VDAC1-SOD1 interaction. The conditions noted are these: 100 nM labeled VDAC1, SOD1 1.22 nM to 20 μM. It counts as binding. The method, then:
(§1) Intact isolated mitochondria from the motor neuron-like NSC34 cells were incubated with SOD1 WT or G93A, and mitochondrial membranes were precipitated by centrifugation. […] The affinity of SOD1 proteins for VDAC1 was then studied by using an in vitro binding assay. Purified and refolded VDAC1 was immobilized on Ni-NTA magnetic beads and incubated with SOD1 proteins. Then, VDAC1-binding complexes were isolated by the application of a magnetic field. […] The VDAC1-SOD1 interaction was quantitatively assayed by Microscale Thermophoresis (MST) analysis. MST measures any variation in the thermal migration of a fluorescently labeled binding partner; changes of fluorescence in a heated spot of the protein solution is a function of increasing interacting protein concentration, and can be exploited to calculate the binding affinity coefficient (Kd). The fluorescent-labeled VDAC1 was incubated with increasing concentrations of SOD1 proteins and the changes in fluorescence monitored. […] Depletion curve was used to calculate the Kd, which was estimated 4,81 μM.
Microscale Thermophoresis (MST) analysis was performed using the NanoTemper Monolith NT.115 apparatus (NanoTemper Technologies, Munich, Germany) as described. VDAC1 was fluorescently-labeled using the NanoTemper protein-labeling kit Green/Blue. […]
For orientation: MST reads how a fluorescent partner responds to local heating, with and without ligand.

Test [2] relates to recombinant human VDAC1. The test can be described thus: In vitro binding assay of SOD1 proteins to VDAC1 immobilized on Ni-NTA magnetic beads (western blot). The conditions noted are these: 6.25 μM SOD1, 1 h RT, n = 3. The method, then: as §1
Recombinant VDAC1 was immobilized onto Ni-NTA Magnetic Agarose Beads (Qiagen) by exploiting its 6xHis-tag, according with manufacture’s protocol. […] Any protein in VDAC1-bound and -unbound fractions was evaluated by western blot. […]

For test [3], the system named is intact mitochondria purified from NSC34 cells. The test can be described thus: Mitochondrial binding assay of SOD1 proteins (western blot). As to conditions: 2 μg SOD1, 1 h RT, n = 3. Further details: species or system mouse. The method, then:
Intact isolated mitochondria from the motor neuron-like NSC34 cells were incubated with SOD1 WT or G93A, and mitochondrial membranes were precipitated by centrifugation. […] The affinity of SOD1 proteins for VDAC1 was then studied by using an in vitro binding assay. Purified and refolded VDAC1 was immobilized on Ni-NTA magnetic beads and incubated with SOD1 proteins. Then, VDAC1-binding complexes were isolated by the application of a magnetic field. […] The VDAC1-SOD1 interaction was quantitatively assayed by Microscale Thermophoresis (MST) analysis. MST measures any variation in the thermal migration of a fluorescently labeled binding partner; changes of fluorescence in a heated spot of the protein solution is a function of increasing interacting protein concentration, and can be exploited to calculate the binding affinity coefficient (Kd). The fluorescent-labeled VDAC1 was incubated with increasing concentrations of SOD1 proteins and the changes in fluorescence monitored. […]
Intact mitochondria were purified from NSC34 cells by Mitochondrial isolation kit (Miltenyi Biotech), according with manufacturer’s instructions. Isolated, intact mitochondria, in the storage buffer provided, were quantified by Lowry method. […] Proteins in mitochondrial or supernatant fraction were detected by western blot and quantified as explained in Supplementary Information. […]

The subject of test [4] is human VDAC1 reconstituted into PLB. As to the kind of experiment: VDAC1 channel conductance in planar lipid bilayer (PLB). The conditions noted are these: for effect on single channel VDAC1 conductance: 1 M KCl, +25 mV, 0.2 μM SOD1 proteins or 15 μM peptide; for effect on voltage-dependence of VDAC1, triangular voltage ramps: symmetric 1 M KCl, ramps 0 to ±50 mV. The class given is biochemical. From the text: Purified VDAC1 was reconstituted into a planar phospholipid bilayer (PLB) and its channel conductance was monitored before and after addition of SOD1 proteins, on cis or trans side of the membrane. […] Moreover, the effect of SOD1 proteins on the voltage-dependence of VDAC1 was monitored by triangular voltage ramps from 0 to ±50 mV. […] The current linearly follows the voltage applied up to about ±25 mV, where VDAC1 decreases its channel conductance through step-like transitions, remaining in low-conducting states.
Under standard experimental condition (1 M KCl and an applied potential of +25 mV) the VDAC1 channel was mainly in low-conducting closed states. […] The effect of NHK1 on the channel conductance is even more evident by plotting the amplitude values obtained in the current traces as a function of the number of events. While for VDAC1 alone the amplitude values appear as a main peak corresponding to the closed states (Fig. 4B), the presence of NHK1 caused a different distribution of events: an additional, different peak corresponding to the open state was visible, together with the closed states peak (Fig. 4C). […] The effect of NHK1 on the voltage-dependence of VDAC1 was monitored by triangular voltage ramps. […] In this experiment, indeed, VDAC1 completely loose, very precociously (already at ±15 mV applied), its ability to linearly respond to the applied voltage: a continuous switch from open to closed states was observed, especially at positive potentials. […] Upon NHK1 incubation, VDAC1 current transitions at positive voltages are very noisy and pass through different sub-conductance states (Fig. 4F).
Purified VDAC1 was reconstituted into a Planar Lipid Bilayer (PLB) apparatus (Warner Instruments, Hamden, CT, USA), previously described. Bilayers were prepared using asolectin (Sigma) dissolved in decane (Sigma) containing 1% chloroform (Sigma) across a 200 μm hole in a derlin cuvette (Warner Instruments). Experiments were performed in 1 M KCl, 10 mM Hepes, pH 7.0[40][46]. Control experiments using empty membrane and/or detergents were performed to avoid activity in any of the above solutions. Data were acquired using a Bilayer Clamp amplifier (Warner Instruments) at 100 μs/point, filtered at 200 Hz and analyzed offline using Clampfit 10.4 program set (Axon Instruments, Union City, CA, USA). Single channel analysis of VDAC1 was performed in presence or not of 0.2 μM of SOD1 WT or G93A, 15 μM NHK1 or ScNHK1 peptide.

Test [5] relates to VDAC1-SOD1 G93A interaction. The test can be described thus: In vitro VDAC1-SOD1 G93A binding assay after pre-incubation with HK1 or peptide (western blot, densitometry). Further details: species or system human. The conditions noted are these: 200 μM HK1 pre-incubated 1 h, 6.25 μM SOD1 G93A; with respect to control; n = 3. From the text: It is well known that HKs bind to VDAC1 in physiological conditions. We hypothesized that the available area for interaction with soluble proteins is a limited, exposed portion of the transmembrane pore VDAC1. […] For this reason, we repeated the VDAC1-SOD1 G93A binding assay, adding increasing concentrations of HK1. […] The reduction corresponds to the increase of HK1 in VDAC1-bound fraction, and it is proportional to the HK1 concentrations added in the assay (Fig. 3A).
In order to evaluate the NHK1 ability to interfere with VDAC1-SOD1 G93A interaction, a binding assay was performed. Increasing concentrations of NHK1 were added to immobilized-VDAC1, before SOD1 G93A addition. […] In fact, a 20-fold smaller concentration of peptide was used to obtain a result similar to that obtained by using the whole HK1 in the previous experiment (see Fig. 3A).
Recombinant VDAC1 was immobilized onto Ni-NTA Magnetic Agarose Beads (Qiagen) by exploiting its 6xHis-tag, according with manufacture’s protocol. For each experiment, a large excess of VDAC1 (30 μM) were incubated with 50 μL of beads suspension in Interaction Buffer (IB) (300 mM NaCl, 50 mM NaH2PO4, 20 mM imidazole, pH 8.0) to saturate all sites. Beads were collected using the magnet-based system DynaMag-2 (Life Technologies) and washed twice in Wash Buffer (300 mM NaCl, 50 mM NaH2PO4, 20 mM imidazole, 0.05% Tween-20, pH 6.3) to remove any excess of VDAC1. Beads-immobilized VDAC1 were incubated with 6.25 μM SOD1 WT or G93A, for 1 h at RT, under constant shaking, in 100 μL of IB. The assay was also performed by pre-incubating immobilized-VDAC1 for an extra 1 h with increasing concentration of purified human HK1 (0, 100, 200 μM) or NHK1 peptide (0, 5, 10, 25 μM), before SOD1 G93A addition. Beads were recovered using Dyna-Mag2 system and VDAC1-complexes were eluted from beads using 50 μL of Elution Buffer (300 mM NaCl, 50 mM NaH2PO4, 300 mM imidazole, pH 3.5). Any protein in VDAC1-bound and -unbound fractions was evaluated by western blot. Three independent experiments were performed for each condition tested.
In general terms: A western blot detects proteins with antibodies after separation by electrophoresis.

The test system of another test is NSC34-SOD1G93A cells. As to the kind of experiment: Mitochondrial membrane potential (ΔΨm) by flow cytometry. The class given is cell-based, mouse. The conditions noted are these: NSC34-SOD1G93A expressing HK1; RH123; n = 3. The method, then:
To evaluate the NHK1 influence on mitochondrial functionality, mitochondrial membrane potential variation (ΔΨm) was assayed in the presence of NHK1 peptide or HK1. ΔΨm is related to the ATP production by oxidative phosphorylation; therefore, it is considered an indication of good mitochondrial and cellular health. Using mitochondria-targeted fluorescent probes, we estimated in flow cytometry the rate of mitochondrial depolarization. NSC34-SOD1G93A cells shown a high level of depolarized mitochondria compared to NSC34-SOD1WT. […] Similarly to NHK1 peptide, the expression of the whole HK1 reduced the depolarized mitochondria of about 15% (Fig. 7C).
ΔΨm was measured using tetramethyl-rhodamine methyl ester (TMRM) or Rhodamine 123 (RH123) (Molecular Probes) according to the excitation/emission wavelength of the transfection reporter or of the transfected fluorescent protein used. Both probes accumulates in active mitochondria due to their positive charge, whereby the reduction of ΔΨm leads to the release of fluorescent probes. Transfected NSC34-SOD1WT and NSC34-SOD1G93A cells were washed with PBS and incubated for 30 min at 37 °C with Krebs Ringer Buffered Saline supplemented with either 200 nM TMRM or 0.1 μg/mL RH123 and 20 μM Verapamil (as a multi drug-resistant pump inhibitor) (Sigma). Cells were then harvested and immediately analyzed by flow cytometry. Cells were excited by an air-cooled argon 488 nm laser, reading the GFP fluorescence of HK1-GFP or RH123 fluorescence in FL1 log mode; TMRM and mtDsRED used as transfection reporter of NHK1 peptide were read on FL3 log mode. Only viable cells detected by reading the scattering indicated as FSC and SSC, were considered for our analysis. The threshold physiological value of ΔΨm was estimated by using cells exposed to 1 μM of the uncoupling agent FCCP as a negative control. Data reported are representative for three sets of independent experiments, each performed at least in triplicate and based on 20.000 events for each group. Data were statistical analyzed by chi-square test. A p < 0,001 was taken as significant.
(A flow cytometer gives signals particle by particle.)

“SOD1 G93A: Strep-tagged recombinant human ALS-linked SOD1 G93A mutant expressed in E. coli”: the “change of fluorescence of labeled VDAC1 with increasing SOD1 concentration” value in the test on recombinant human VDAC1 [1] is recorded as “produced fluorescence decrease”. Further, the “distribution between VDAC1-bound and -unbound fraction” value in the test with recombinant human VDAC1 [2] is “distributed between VDAC1-bound and -unbound fraction”. Moreover, the “distribution between mitochondrial pellet and supernatant” value in test [3] is “co-precipitated in the mitochondrial pellet”. In test [4], the “effect on single channel VDAC1 conductance” value was “promoted VDAC1 channel instability” and the “effect on voltage-dependence of VDAC1, triangular voltage ramps” value was “perturbation of voltage-dependence”.

Turning to “SOD1 WT: Strep-tagged recombinant human SOD1 wild type expressed in E. coli”, in the test on recombinant human VDAC1 [1], the “change of fluorescence of labeled VDAC1 with increasing SOD1 concentration” value was “no fluorescence change”. Also, the “distribution between VDAC1-bound and -unbound fraction” value in the test with recombinant human VDAC1 [2] is “almost exclusively in the unbound fraction”. Moreover, the “distribution between mitochondrial pellet and supernatant” value in test [3] is on record as “found exclusively in the supernatant”. Besides, in test [4], the “effect on single channel VDAC1 conductance” value is recorded as “did not modify the VDAC1 closed state” and the “effect on voltage-dependence of VDAC1, triangular voltage ramps” value is “no modification in the usual VDAC1 pattern”.

B1: HK1: recombinant human HK1 purchased by Sigma; in cells expressed from plasmid (protein)
chain: MIAAQLLAYYFTELKDDQVKKIDKYLYAMRLSDETLIDIMTRFRKEMKNGLSRDFNPTATVKMLPTFVRSIPDGSEKGDFIALDLGGSSFRILRVQVNHEKNQNVHMESEVYDTPENIVHGSGSQLFDHVAECLGDFMEKRKIKDKKLPVGFTFSFPCQQSKIDEAILITWTKRFKASGVEGADVVKLLNKAIKKRGDYDANIVAVVNDTVGTMMTCGYDDQHCEVGLIIGTGTNACYMEELRHIDLVEGDEGRMCINTEWGAFGDDGSLEDIRTEFDREIDRGSLNPGKQLFEKMVSGMYLGELVRLILVKMAKEGLLFEGRITPELLTRGKFNTSDVSAIEKNKEGLHNAKEILTRLGVEPSDDDCVSVQHVCTIVSFRSANLVAATLGAILNRLRDNKGTPRLRTTVGVDGSLYKTHPQYSRRFHKTLRRLVPDSDVRFLLSESGSGKGAAMVTAVAYRLAEQHRQIEETLAHFHLTKDMLLEVKKRMRAEMELGLRKQTHNNAVVKMLPSFVRRTPDGTENGDFLALDLGGTNFRVLLVKIRSGKKRTVEMHNKIYAIPIEIMQGTGEELFDHIVSCISDFLDYMGIKGPRMPLGFTFSFPCQQTSLDAGILITWTKGFKATDCVGHDVVTLLRDAIKRREEFDLDVVAVVNDTVGTMMTCAYEEPTCEVGLIVGTGSNACYMEEMKNVEMVEGDQGQMCINMEWGAFGDNGCLDDIRTHYDRLVDEYSLNAGKQRYEKMISGMYLGEIVRNILIDFTKKGFLFRGQISETLKTRGIFETKFLSQIESDRLALLQVRAILQQLGLNSTCDDSILVKTVCGVVSRRAAQLCGAGMAAVVDKIRENRGLDRLNVTVGVDGTLYKLHPHFSRIMHQTVKELSPKCNVSFLLSEDGSGKGAALITAVGVRLRTEASS
As for B1, the “decrease of SOD1 G93A bound to immobilized VDAC1” value in test [5] is “about 40%”. For the same molecule, the “reduction of depolarized mitochondria” value in the test with NSC34-SOD1G93A cells is given as “about 15%”.

The values are drawn from paper PMC5056396, “Hexokinase I N-terminal based peptide prevents the VDAC1-SOD1 G93A interaction and re-establishes ALS cell viability” (Scientific Reports, 2016).
